Source: EPA's CvTdb concentration-time database

What was measured:
Assay in all cases: concentration in plasma after dosing
Rat [1] = conditions: dosed: 4-methylimidazole, 10 mg/kg, iv, Male, Harlan Sprague Dawley
Rat [2] = conditions: dosed: 4-methylimidazole, 10 mg/kg, iv, Male, Harlan Sprague Dawley; remark: listed apart in the source
Rat [3] = conditions: 0.5 h; dosed: 4-methylimidazole; 10 mg/kg; iv; Male; Harlan Sprague Dawley
Rat [4] = conditions: dosed: 4-methylimidazole, 10 mg/kg, iv, Male, Harlan Sprague Dawley; remark: listed apart in the source
Rat [5] = conditions: dosed: 4-methylimidazole, 10 mg/kg, iv, Male, Harlan Sprague Dawley; remark: listed apart in the source
Rat [6] = conditions: dosed: 4-methylimidazole, 10 mg/kg, iv, Male, Harlan Sprague Dawley; remark: listed apart in the source
Rat [7] = conditions: dosed: 4-methylimidazole, 10 mg/kg, iv, Male, Harlan Sprague Dawley; remark: listed apart in the source
Rat [8] = conditions: dosed: 4-methylimidazole, 10 mg/kg, iv, Male, Harlan Sprague Dawley; remark: listed apart in the source
Rat [9] = conditions: dosed: 4-methylimidazole, 10 mg/kg, iv, Male, Harlan Sprague Dawley; remark: listed apart in the source
Rat [10] = conditions: dosed: 4-methylimidazole, 10 mg/kg, iv, Male, Harlan Sprague Dawley; remark: listed apart in the source
Rat [11] = conditions: dosed: 4-methylimidazole, 10 mg/kg, iv, Male, Harlan Sprague Dawley; remark: listed apart in the source
Rat [12] = conditions: dosed: 4-methylimidazole, 10 mg/kg, iv, Male, Harlan Sprague Dawley; remark: listed apart in the source
Rat [13] = conditions: dosed: 4-methylimidazole, 10 mg/kg, iv, Male, Harlan Sprague Dawley; remark: listed apart in the source
Rat [14] = conditions: dosed: 4-methylimidazole, 10 mg/kg, iv, Male, Harlan Sprague Dawley; remark: listed apart in the source
Rat [15] = conditions: dosed: 4-methylimidazole, 10 mg/kg, iv, Male, Harlan Sprague Dawley; remark: listed apart in the source
Rat [16] = conditions: dosed: 4-methylimidazole, 10 mg/kg, iv, Male, Harlan Sprague Dawley; remark: listed apart in the source
Rat [17] = conditions: dosed: 4-methylimidazole, 10 mg/kg, iv, Male, Harlan Sprague Dawley; remark: listed apart in the source
Rat [18] = conditions: dosed: 4-methylimidazole, 10 mg/kg, iv, Male, Harlan Sprague Dawley; remark: listed apart in the source
Rat [19] = conditions: 0.75 h; dosed: 4-methylimidazole; 10 mg/kg; iv; Male; Harlan Sprague Dawley
Rat [20] = conditions: dosed: 4-methylimidazole, 10 mg/kg, iv, Male, Harlan Sprague Dawley; remark: listed apart in the source
Rat [21] = conditions: dosed: 4-methylimidazole, 10 mg/kg, iv, Male, Harlan Sprague Dawley; remark: listed apart in the source
Rat [22] = conditions: dosed: 4-methylimidazole, 10 mg/kg, iv, Male, Harlan Sprague Dawley; remark: listed apart in the source
Rat [23] = conditions: 0.5 h; dosed: 4-methylimidazole; 10 mg/kg; iv; Male; Harlan Sprague Dawley; remark: listed apart in the source
Rat [24] = conditions: 0.75 h; dosed: 4-methylimidazole; 10 mg/kg; iv; Male; Harlan Sprague Dawley; remark: listed apart in the source
Rat [25] = conditions: dosed: 4-methylimidazole, 10 mg/kg, iv, Male, Harlan Sprague Dawley; remark: listed apart in the source
Rat [26] = conditions: dosed: 4-methylimidazole, 10 mg/kg, iv, Female, Harlan Sprague Dawley
Rat [27] = conditions: dosed: 4-methylimidazole, 10 mg/kg, iv, Male, Harlan Sprague Dawley; remark: listed apart in the source
Rat [28] = conditions: dosed: 4-methylimidazole, 10 mg/kg, iv, Female, Harlan Sprague Dawley; remark: listed apart in the source
Rat [29] = tested on: Rat
Rat [30] = conditions: 3.5 h; dosed: Oxazepam; 50 mg/kg; oral; Male; F344
Rat [31] = conditions: dosed: Oxazepam, 400 mg/kg, oral, Male, F344
Rat [32] = conditions: dosed: Oxazepam, 50 mg/kg, oral, Female, F344
Rat [33] = conditions: 3.5 h; dosed: Oxazepam; 50 mg/kg; oral; Male; F344; remark: listed apart in the source
Rat [34] = conditions: dosed: Oxazepam, 200 mg/kg, oral, Male, F344
Rat [35] = conditions: 3.5 h; dosed: Oxazepam; 50 mg/kg; oral; Female; F344
Rat [36] = conditions: dosed: Oxazepam, 400 mg/kg, oral, Male, F344; remark: listed apart in the source
Rat [37] = conditions: dosed: Oxazepam, 400 mg/kg, oral, Female, F344
Rat [38] = conditions: dosed: Oxazepam, 50 mg/kg, oral, Female, F344; remark: listed apart in the source
Rat [39] = conditions: dosed: Oxazepam, 200 mg/kg, oral, Male, F344; remark: listed apart in the source
Rat [40] = conditions: dosed: Oxazepam, 50 mg/kg, oral, Female, F344; remark: listed apart in the source
Rat [41] = conditions: dosed: Oxazepam, 200 mg/kg, oral, Female, F344
Rat [42] = conditions: dosed: Oxazepam, 200 mg/kg, oral, Male, F344; remark: listed apart in the source
Rat [43] = conditions: dosed: Oxazepam, 200 mg/kg, oral, Male, F344; remark: listed apart in the source
Rat [44] = conditions: dosed: Oxazepam, 50 mg/kg, oral, Male, F344
Rat [45] = conditions: dosed: Oxazepam, 200 mg/kg, oral, Female, F344; remark: listed apart in the source
Rat [46] = conditions: dosed: Oxazepam, 200 mg/kg, oral, Female, F344; remark: listed apart in the source
Rat [47] = conditions: dosed: Oxazepam, 50 mg/kg, oral, Male, F344; remark: listed apart in the source
Rat [48] = conditions: dosed: Oxazepam, 50 mg/kg, oral, Female, F344; remark: listed apart in the source
Rat [49] = conditions: dosed: Oxazepam, 200 mg/kg, oral, Male, F344; remark: listed apart in the source
Rat [50] = conditions: dosed: Oxazepam, 400 mg/kg, oral, Female, F344; remark: listed apart in the source
Rat [51] = conditions: dosed: Oxazepam, 200 mg/kg, oral, Male, F344; remark: listed apart in the source
Rat [52] = conditions: dosed: Oxazepam, 50 mg/kg, oral, Female, F344; remark: listed apart in the source
Rat [53] = conditions: dosed: Oxazepam, 200 mg/kg, oral, Male, F344; remark: listed apart in the source
Rat [54] = conditions: dosed: Oxazepam, 200 mg/kg, oral, Female, F344; remark: listed apart in the source
Rat [55] = conditions: dosed: Oxazepam, 200 mg/kg, oral, Male, F344; remark: listed apart in the source
Rat [56] = conditions: dosed: Oxazepam, 200 mg/kg, oral, Female, F344; remark: listed apart in the source
Rat [57] = conditions: dosed: Oxazepam, 200 mg/kg, oral, Female, F344; remark: listed apart in the source
Rat [58] = conditions: 1 h; dosed: Oxazepam; 50 mg/kg; oral; Female; F344
Rat [59] = conditions: dosed: Oxazepam, 200 mg/kg, oral, Female, F344; remark: listed apart in the source
Rat [60] = conditions: dosed: Oxazepam, 50 mg/kg, oral, Male, F344; remark: listed apart in the source
Rat [61] = conditions: dosed: Oxazepam, 50 mg/kg, oral, Male, F344; remark: listed apart in the source
Rat [62] = conditions: dosed: Oxazepam, 50 mg/kg, oral, Female, F344; remark: listed apart in the source
Rat [63] = conditions: dosed: Oxazepam, 200 mg/kg, oral, Female, F344; remark: listed apart in the source
Rat [64] = conditions: dosed: Oxazepam, 50 mg/kg, oral, Male, F344; remark: listed apart in the source
Rat [65] = conditions: 2 h; dosed: Oxazepam; 50 mg/kg; oral; Male; F344

Cc1cnc[nH]1 [4-methylimidazole]
Conditions | concentration in plasma [µg/mL]
Rat [1], 4 h | 1.73
Rat [1], 10 min | 7.91
Rat [2], 1 h | 4.07
Rat [2], 2 min | 10.2
Rat [4], 4 h | 1.49
Rat [4], 10 min | 7.84
Rat [5], 0.5 h | 5.62
Rat [5], 6 h | 0.162
Rat [6], 2 h | 2.46
Rat [6], 10 min | 7.01
Rat [7], 0.75 h | 3.04
Rat [7], 8 h | 0.655
Rat [8], 4 h | 0.611
Rat [8], 10 min | 8.52
Rat [9], 0.5 h | 5.44
Rat [9], 8 h | 0.0882
Rat [10], 2 h | 2.75
Rat [10], 7 min | 8.84
Rat [11], 2 h | 3.52
Rat [11], 10 min | 6.96
Rat [12], 4 h | 0.96
Rat [12], 20 min | 5.89
Rat [13], 1 h | 4.61
Rat [13], 2 min | 12.2
Rat [14], 2 h | 3.33
Rat [14], 7 min | 8.24
Rat [15], 6 h | 0.112
Rat [15], 20 min | 7.33
Rat [16], 6 h | 0.116
Rat [16], 20 min | 6.84
Rat [17], 6 h | 0.148
Rat [17], 20 min | 6.95
Rat [18], 0.5 h | 5.28
Rat [18], 6 h | 0.108
Rat [20], 1 h | 4.11
Rat [20], 7 min | 7.09
Rat [21], 0.75 h | 5.62
Rat [21], 8 h | 0.0743
Rat [22], 4 h | 0.647
Rat [22], 20 min | 6.93
Rat [25], 0.75 h | 4.78
Rat [25], 2 min | 11.8
Rat [26], 1 h | 6.38
Rat [26], 2 min | 10.5
Rat [27], 2 h | 2.74
Rat [27], 7 min | 8.15
Rat [28], 1 h | 5.19
Rat [28], 2 min | 12

Conditions | concentration in plasma [µg/mL]
Rat [3] | 5.77
Rat [19] | 5.44
Rat [23] | 5.42
Rat [24] | 6.16

concentration in plasma [µg/mL], Rat [29], dosed: 4-methylimidazole, 10 mg/kg, iv, Harlan Sprague Dawley
Conditions | Female | Male
0.5 h | – | 7.3
0.75 h | – | 6.21
1 h | 4.81 | –
2 h | – | 2.06
2 min | – | 9.35
4 h | – | 0.69
6 h | – | 0.454
7 min | 8 | 9
8 h | – | 0.205
10 min | – | 8.77
20 min | – | 6.95

O=C1Nc2ccc(Cl)cc2C(c2ccccc2)=NC1O (centres undefined) [Oxazepam]
Conditions | concentration in plasma [µg/mL]
Rat [30] | 1.07
Rat [33] | 1.26
Rat [35] | 2.51
Rat [58] | 1.29
Rat [65] | 0.99

Conditions | concentration in plasma [µg/mL]
Rat [31], 1 h | 2.44
Rat [31], 10 h | 3.96
Rat [32], 2 h | 3.64
Rat [32], 18 h | 0.27
Rat [34], 2 h | 2.13
Rat [34], 18 h | 3.14
Rat [36], 1 h | 3.5
Rat [36], 10 h | 1.79
Rat [37], 1 h | 3.27
Rat [37], 10 h | 4.28
Rat [38], 6 h | 1.63
Rat [38], 20 min | 0.76
Rat [39], 3.5 h | 10.5
Rat [39], 24 h | 1.32
Rat [40], 6 h | 1.56
Rat [40], 20 min | 0.88
Rat [41], 6 h | 4.55
Rat [41], 20 min | 1.25
Rat [42], 2 h | 2.21
Rat [42], 18 h | 1.85
Rat [43], 1 h | 2.31
Rat [43], 10 h | 1.25
Rat [44], 6 h | 0.58
Rat [44], 20 min | 0.4
Rat [45], 3.5 h | 2.99
Rat [45], 24 h | 10
Rat [46], 2 h | 3.34
Rat [46], 18 h | 3.36
Rat [47], 6 h | 0.51
Rat [47], 20 min | 0.29
Rat [48], 1 h | 1.61
Rat [48], 10 h | 0.82
Rat [49], 6 h | 1.96
Rat [49], 20 min | 1.02
Rat [50], 1 h | 4.12
Rat [50], 10 h | 5.63
Rat [51], 1 h | 1.63
Rat [51], 10 h | 2.03
Rat [52], 2 h | 1.62
Rat [52], 18 h | 0.27
Rat [53], 3.5 h | 2.63
Rat [53], 24 h | 0.52
Rat [54], 1 h | 2.3
Rat [54], 10 h | 1.72
Rat [55], 6 h | 2.02
Rat [55], 20 min | 1.47
Rat [56], 3.5 h | 4.28
Rat [56], 24 h | 1.46
Rat [57], 2 h | 2.84
Rat [57], 18 h | 0.76
Rat [59], 1 h | 2.88
Rat [59], 10 h | 3.47
Rat [60], 1 h | 1.28
Rat [60], 10 h | 0.52
Rat [61], 1 h | 0.95
Rat [61], 10 h | 0.39
Rat [62], 3.5 h | 0.71
Rat [62], 24 h | 0.45
Rat [63], 6 h | 1
Rat [63], 20 min | 1.2
Rat [64], 2 h | 0.99
Rat [64], 18 h | 0.37

concentration in plasma [µg/mL], Rat [29], dosed: Oxazepam, oral, F344
Conditions | 1 h | 2 h | 3.5 h | 6 h | 10 h | 18 h | 20 min | 24 h
50 mg/kg, Female | 2.85 | 1.9 | 1.17 | 1.23 | 1.38 | 0.28 | 0.56 | –
50 mg/kg, Male | 1.23 | 1 | 0.91 | 0.68 | 0.33 | – | 0.45 | 0.59
200 mg/kg, Female | 3.02 | 3.87 | 2.7 | 3.91 | 5.16 | 5.03 | 1.25 | 5
200 mg/kg, Male | 2.37 | – | 3.15 | 1.58 | 1.89 | 0.73 | 0.6 | 2.28
400 mg/kg, Female | 4.1 | – | – | – | 4.48 | – | – | –
400 mg/kg, Male | 3.07 | – | – | – | 2.91 | – | – | –
